# Target: T1, Gamma-aminobutyric acid receptor subunit alpha-1/beta-2/gamma-2 (Homo sapiens, UniProt P14867+P18507+P47870)
# T1 sequence (P14867 whole entry): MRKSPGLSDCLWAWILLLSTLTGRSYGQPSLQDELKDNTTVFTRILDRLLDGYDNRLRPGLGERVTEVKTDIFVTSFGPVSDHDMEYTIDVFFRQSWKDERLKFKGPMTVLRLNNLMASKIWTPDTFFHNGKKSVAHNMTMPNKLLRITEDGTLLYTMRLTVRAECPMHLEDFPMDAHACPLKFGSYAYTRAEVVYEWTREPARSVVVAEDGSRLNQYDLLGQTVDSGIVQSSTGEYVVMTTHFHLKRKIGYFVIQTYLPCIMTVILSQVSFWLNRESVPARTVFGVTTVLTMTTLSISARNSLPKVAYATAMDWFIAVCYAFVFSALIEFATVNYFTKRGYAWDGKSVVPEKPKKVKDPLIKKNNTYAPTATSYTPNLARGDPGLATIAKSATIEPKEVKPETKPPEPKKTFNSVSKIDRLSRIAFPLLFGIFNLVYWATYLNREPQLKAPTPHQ
# T1 sequence (P18507 whole entry): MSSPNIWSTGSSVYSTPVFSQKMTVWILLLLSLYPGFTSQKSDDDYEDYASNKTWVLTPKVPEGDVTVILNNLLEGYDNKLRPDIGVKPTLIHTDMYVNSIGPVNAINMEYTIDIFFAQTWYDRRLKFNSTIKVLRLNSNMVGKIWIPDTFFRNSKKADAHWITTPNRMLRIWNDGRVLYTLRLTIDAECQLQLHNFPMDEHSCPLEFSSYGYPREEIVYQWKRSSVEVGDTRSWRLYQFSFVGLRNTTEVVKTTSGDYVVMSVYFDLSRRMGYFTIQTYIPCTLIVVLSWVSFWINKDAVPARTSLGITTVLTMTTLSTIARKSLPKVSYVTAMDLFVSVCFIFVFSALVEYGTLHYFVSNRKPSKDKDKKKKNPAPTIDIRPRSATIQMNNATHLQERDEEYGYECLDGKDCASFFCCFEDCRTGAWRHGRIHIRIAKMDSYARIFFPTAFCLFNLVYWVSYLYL
# T1 sequence (P47870 whole entry): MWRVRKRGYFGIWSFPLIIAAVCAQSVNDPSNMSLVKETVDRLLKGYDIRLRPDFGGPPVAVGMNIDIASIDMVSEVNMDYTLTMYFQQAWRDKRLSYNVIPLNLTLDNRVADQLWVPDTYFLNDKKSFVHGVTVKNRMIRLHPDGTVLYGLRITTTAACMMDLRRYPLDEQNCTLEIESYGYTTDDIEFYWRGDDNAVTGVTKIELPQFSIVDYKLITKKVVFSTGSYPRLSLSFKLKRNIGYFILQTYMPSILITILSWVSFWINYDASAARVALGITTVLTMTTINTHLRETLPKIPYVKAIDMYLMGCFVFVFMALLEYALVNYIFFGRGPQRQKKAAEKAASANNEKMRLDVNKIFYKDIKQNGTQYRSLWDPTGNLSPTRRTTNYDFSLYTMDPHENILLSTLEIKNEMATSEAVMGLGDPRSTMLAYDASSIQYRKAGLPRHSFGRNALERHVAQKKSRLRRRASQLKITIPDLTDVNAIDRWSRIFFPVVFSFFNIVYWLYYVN
# Test: Agonist activity at human GABA-A alpha-1-beta-2-gamma-2 receptor expressed in Xenopus laevis
row,SMILES,EC50 [µM]
1,CCOC(=O)c1cncn1[C@H](C)c1ccc(C2(C(F)(F)F)N=N2)cc1,30
2,CCOC(=O)c1cncn1[C@@H](C)c1ccc(C2(C(F)(F)F)N=N2)cc1,6.4
